Test results: ChEMBL document CHEMBL1201862, “PubChem BioAssay data set” (2004)
Calls of active or inactive are those of the source.

How the values were obtained:
[1] = activation of miR-122 Renilla sensor silencing – cell-based, Huh7 psiCHECK-miR122, Renilla luciferase, cherry-picked, dose response (AID 651956); format: functional;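 further: huh7 hepatoma cells stably carrying a psiCHECK-2 miR-122 sensor plasmid; renilla luciferase signal reporting endogenous miR-122 activity after 48 h compound exposure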
[2] = alpha-synuclein stem-loop luciferase translation blockers – H4 neuroglioma cells, luminescence, confirmation (AID 1988); format: functional, cell-based
[3] = luciferase reporter signal suppression in cells – H4 neuroglioma cells, luminescence, dose response (AID 1990); format: functional, cell-based
[4] = Luminescence Cell-Based Dose Response HTS to Identify Inhibitors of 5'UTR Stem-Loop Driven Prion Protein mRNA Translation in H4 Neuroglioblastoma Cells. [Related pubchem assays: 1827 (Project Summary), 1813 (Primary HTS)]; format: functional
HEK293 = experiment: EBV LMP1 TES2 canonical NF-kB signalling blockers – cell-based, HEK293, luciferase, cherry-pick, dose response (AID 588343); format: functional; settings: Homo sapiens
[5] = target: T1, Aryl hydrocarbon receptor (Homo sapiens, UniProt P35869); settings: Potency;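 further: confirmatory quantitative high-throughput screen measuring activation of the AhR signaling pathway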
T1 sequence (P35869 whole entry): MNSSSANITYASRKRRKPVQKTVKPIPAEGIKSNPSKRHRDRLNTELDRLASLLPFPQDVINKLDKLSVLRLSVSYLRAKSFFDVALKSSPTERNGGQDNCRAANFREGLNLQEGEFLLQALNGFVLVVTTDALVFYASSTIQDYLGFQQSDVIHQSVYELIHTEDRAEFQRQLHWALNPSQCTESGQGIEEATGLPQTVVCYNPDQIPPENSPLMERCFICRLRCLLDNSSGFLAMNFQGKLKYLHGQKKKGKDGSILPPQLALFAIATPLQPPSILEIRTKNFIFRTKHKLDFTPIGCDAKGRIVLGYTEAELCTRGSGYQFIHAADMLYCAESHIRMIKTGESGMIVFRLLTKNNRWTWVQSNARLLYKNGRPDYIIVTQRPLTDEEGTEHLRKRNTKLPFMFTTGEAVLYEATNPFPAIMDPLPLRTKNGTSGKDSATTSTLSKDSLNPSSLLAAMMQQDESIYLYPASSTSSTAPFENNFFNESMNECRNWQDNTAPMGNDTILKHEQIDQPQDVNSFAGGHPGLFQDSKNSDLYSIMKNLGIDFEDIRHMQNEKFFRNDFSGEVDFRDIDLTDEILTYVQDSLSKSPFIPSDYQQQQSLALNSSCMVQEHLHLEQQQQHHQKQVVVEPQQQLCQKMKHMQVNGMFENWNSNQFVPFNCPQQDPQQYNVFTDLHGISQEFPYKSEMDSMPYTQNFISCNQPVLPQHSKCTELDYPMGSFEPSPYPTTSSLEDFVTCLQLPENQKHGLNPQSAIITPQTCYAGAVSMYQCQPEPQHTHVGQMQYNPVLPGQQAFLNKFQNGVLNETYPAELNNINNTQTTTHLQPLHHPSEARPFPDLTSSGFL

[6] = target: T2, Low molecular weight phosphotyrosine protein phosphatase (Homo sapiens, UniProt P24666); format: functional; settings: read-out: IC50_Mean
T2 sequence (P24666 whole entry): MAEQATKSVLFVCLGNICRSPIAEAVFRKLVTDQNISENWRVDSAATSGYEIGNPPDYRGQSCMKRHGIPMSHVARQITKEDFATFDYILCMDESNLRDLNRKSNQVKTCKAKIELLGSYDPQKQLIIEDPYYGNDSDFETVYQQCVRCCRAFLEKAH

[7] = target: T2, Low molecular weight phosphotyrosine protein phosphatase; format: functional; settings: read-out: IC50_Mean; remark: listed apart in the source
P388 = experiment: cells; format: functional; settings: Mus musculus
SN12K1 = experiment: cells; format: functional; settings: Homo sapiens
P388/ADR = experiment: cells; format: functional; settings: Mus musculus
Prothrombin = Prothrombin (Bos taurus, UniProt P00735); experiment: thrombin protease inhibitors – biochemical, fluorescence polarization, uHTS hits, dose response (AID 602369); format: functional
[8] = target: 72 kDa type IV collagenase (Homo sapiens, UniProt P08253); experiment: Dose Response validation of uHTS RPN11 inhibitor hits using a MMP-2 Fluorescence assay.; format: functional
Sequence of 72 kDa type IV collagenase (P08253 whole entry): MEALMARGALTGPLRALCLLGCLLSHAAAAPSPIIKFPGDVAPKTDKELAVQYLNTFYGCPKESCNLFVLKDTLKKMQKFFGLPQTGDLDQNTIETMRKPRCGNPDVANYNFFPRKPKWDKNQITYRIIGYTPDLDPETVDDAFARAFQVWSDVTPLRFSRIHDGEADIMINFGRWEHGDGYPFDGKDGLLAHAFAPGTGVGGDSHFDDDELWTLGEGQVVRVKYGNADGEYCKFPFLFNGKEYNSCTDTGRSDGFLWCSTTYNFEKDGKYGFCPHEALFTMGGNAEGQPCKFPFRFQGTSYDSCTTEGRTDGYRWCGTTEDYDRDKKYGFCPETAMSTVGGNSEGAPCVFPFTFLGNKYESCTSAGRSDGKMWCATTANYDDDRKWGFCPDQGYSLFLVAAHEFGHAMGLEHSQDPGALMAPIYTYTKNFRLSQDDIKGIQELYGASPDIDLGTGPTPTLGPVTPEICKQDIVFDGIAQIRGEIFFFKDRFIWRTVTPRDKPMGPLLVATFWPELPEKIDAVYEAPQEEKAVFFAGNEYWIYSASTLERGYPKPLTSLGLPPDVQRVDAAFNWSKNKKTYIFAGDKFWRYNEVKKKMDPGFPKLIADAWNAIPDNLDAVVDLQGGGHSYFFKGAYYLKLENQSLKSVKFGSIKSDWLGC

[9] = target: 26S proteasome non-ATPase regulatory subunit 14 (Homo sapiens, UniProt O00487); experiment: inhibition of proteasome subunit RPN11 – biochemical, fluorescence polarization, uHTS hits, confirmation (AID 602368); format: functional
Sequence of 26S proteasome non-ATPase regulatory subunit 14 (O00487 whole entry): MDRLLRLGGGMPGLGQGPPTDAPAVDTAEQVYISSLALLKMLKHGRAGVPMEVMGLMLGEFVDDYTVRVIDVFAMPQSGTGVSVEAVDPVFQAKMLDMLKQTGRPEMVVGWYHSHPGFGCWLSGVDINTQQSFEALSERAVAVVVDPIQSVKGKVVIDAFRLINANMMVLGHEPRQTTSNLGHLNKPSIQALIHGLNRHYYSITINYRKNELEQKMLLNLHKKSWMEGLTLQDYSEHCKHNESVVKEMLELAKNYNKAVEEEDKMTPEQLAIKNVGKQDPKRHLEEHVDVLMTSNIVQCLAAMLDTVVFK

[10] = target: Mitochondrial peptide methionine sulfoxide reductase (Bos taurus, UniProt P54149); format: functional;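 further: absorbance read-out, biochemical high-throughput dose-response screen for MsrA inhibitors, confirmatory; recombinant bovine MsrA coupled to E. coli TrxB with NADPH and selenocystamine; potency is for inhibitors of MsrA activity on DMSO substrate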
Sequence of Mitochondrial peptide methionine sulfoxide reductase (P54149 whole entry): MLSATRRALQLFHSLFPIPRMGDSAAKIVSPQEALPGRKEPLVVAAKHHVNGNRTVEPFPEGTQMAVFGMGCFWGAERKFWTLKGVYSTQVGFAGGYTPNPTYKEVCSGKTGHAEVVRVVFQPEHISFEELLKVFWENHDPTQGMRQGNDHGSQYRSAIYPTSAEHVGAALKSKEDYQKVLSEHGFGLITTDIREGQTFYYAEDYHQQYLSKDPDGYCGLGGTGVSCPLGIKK

[11] = target: T3, Endoribonuclease toxin MazF (Escherichia coli K-12, UniProt P0AE70); experiment: activation of MazEF endoribonuclease cleavage – biochemical, fluorescence, single-stranded RNA substrate, uHTS hits, dose response (AID 588481); format: functional
T3 sequence (P0AE70 whole entry): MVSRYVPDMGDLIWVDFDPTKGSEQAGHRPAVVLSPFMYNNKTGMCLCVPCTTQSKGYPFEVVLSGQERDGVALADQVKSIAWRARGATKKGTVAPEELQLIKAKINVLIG

[12] = target: T3, Endoribonuclease toxin MazF; experiment: substrate-only fluorescence increase artefacts – biochemical, single-stranded RNase substrate, counter-screen for MazEF activator project, dose response (AID 588502); format: functional
[13] = target: Ras and Rab interactor 1/Tyrosine-protein kinase ABL1 (Homo sapiens, UniProt P00519+Q13671); format: functional;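 further: biochemical TR-FRET dose-response test measuring inhibition of binding between Rin1 and Abl proteins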
Sequence of Ras and Rab interactor 1/Tyrosine-protein kinase ABL1 (P00519 whole entry): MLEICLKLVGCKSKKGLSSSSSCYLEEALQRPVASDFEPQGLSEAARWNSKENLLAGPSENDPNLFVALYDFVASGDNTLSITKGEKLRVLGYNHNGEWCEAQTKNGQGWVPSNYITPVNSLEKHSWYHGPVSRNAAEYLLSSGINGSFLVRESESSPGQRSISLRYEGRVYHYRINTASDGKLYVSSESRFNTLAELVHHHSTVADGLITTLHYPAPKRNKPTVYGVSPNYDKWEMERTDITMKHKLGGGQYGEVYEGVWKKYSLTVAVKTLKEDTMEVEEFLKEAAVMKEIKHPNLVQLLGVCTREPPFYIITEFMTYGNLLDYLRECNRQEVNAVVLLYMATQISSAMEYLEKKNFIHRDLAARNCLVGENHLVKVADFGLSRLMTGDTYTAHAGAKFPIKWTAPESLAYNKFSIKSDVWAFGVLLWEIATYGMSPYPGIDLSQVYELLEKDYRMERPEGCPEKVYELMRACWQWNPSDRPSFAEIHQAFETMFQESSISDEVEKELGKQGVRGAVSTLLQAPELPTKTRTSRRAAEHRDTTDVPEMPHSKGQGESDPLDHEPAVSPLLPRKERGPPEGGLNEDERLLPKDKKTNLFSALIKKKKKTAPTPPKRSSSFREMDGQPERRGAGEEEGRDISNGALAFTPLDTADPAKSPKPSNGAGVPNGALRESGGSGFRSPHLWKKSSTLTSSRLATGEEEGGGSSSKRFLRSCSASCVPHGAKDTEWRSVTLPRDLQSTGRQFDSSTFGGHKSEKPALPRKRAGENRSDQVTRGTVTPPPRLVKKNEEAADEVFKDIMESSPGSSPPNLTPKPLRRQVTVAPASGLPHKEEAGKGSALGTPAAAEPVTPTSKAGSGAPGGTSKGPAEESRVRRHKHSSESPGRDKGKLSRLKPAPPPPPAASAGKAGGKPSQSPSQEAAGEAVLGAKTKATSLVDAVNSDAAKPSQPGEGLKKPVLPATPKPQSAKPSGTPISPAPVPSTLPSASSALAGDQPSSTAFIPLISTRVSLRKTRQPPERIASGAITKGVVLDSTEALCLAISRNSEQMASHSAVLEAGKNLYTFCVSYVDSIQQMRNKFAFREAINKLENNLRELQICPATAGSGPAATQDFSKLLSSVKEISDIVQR
Sequence of Ras and Rab interactor 1/Tyrosine-protein kinase ABL1 (Q13671 whole entry): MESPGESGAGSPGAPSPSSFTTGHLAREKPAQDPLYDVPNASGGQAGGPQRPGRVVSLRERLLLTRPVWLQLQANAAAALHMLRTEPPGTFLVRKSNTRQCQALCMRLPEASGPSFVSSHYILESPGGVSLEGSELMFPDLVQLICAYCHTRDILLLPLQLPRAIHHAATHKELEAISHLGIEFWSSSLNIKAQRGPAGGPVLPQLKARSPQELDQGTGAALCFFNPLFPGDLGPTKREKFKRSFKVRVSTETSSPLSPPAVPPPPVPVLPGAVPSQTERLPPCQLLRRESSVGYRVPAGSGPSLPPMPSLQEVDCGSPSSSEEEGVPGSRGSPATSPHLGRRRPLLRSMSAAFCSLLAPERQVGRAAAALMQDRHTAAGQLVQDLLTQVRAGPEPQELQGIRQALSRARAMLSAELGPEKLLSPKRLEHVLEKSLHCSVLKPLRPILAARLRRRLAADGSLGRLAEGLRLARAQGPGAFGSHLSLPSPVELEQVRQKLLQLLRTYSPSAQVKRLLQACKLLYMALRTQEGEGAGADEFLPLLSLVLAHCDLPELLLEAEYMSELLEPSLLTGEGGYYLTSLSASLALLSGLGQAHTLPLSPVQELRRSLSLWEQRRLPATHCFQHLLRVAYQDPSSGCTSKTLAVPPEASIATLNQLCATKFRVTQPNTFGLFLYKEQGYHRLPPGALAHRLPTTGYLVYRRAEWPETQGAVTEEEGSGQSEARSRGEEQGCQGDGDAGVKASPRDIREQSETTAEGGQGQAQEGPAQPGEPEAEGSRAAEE

[14] = Trypanosoma cruzi growth suppression in host cells – NIH3T3 host cells, beta-gal luminescence, confirmation (AID 2044); format: functional, cell-based;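 further: intracellular parasites grown in NIH/3T3 mouse fibroblasts as host cells; luminescent beta-galactosidase reporter signal from transgenic T. cruzi replicating inside host cells; inhibitors lower the luminescence signal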
Vero = experiment: inhibition of WNV-induced cytopathic effect – cell-based, CPE readout (AID 1621); format: functional; settings: Chlorocebus sabaeus
Melanocortin receptor 4 = Melanocortin receptor 4 (Homo sapiens, UniProt P32245); format: functional, cell-based;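 further: Cell-based assay with luminescence read-out, confirmatory dose-response testing for agonist activity of biased ligands at MC4R; human U2OS cells with tagged receptor and beta-arrestin; potency of agonists that increase receptor coupling to beta-arrestin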
Sequence of Melanocortin receptor 4 (P32245 whole entry): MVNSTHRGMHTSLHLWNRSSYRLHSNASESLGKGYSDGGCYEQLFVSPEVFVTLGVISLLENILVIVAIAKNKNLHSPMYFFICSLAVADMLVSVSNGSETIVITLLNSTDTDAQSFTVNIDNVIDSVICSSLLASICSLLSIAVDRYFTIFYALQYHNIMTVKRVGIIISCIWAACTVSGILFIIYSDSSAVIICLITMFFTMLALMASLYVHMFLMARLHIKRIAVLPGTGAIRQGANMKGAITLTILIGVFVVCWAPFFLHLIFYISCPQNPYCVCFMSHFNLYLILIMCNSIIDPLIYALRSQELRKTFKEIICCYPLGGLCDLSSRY

[15] = NIH3T3 cell viability loss – ATP luminescence, mouse fibroblasts, counter-screen, dose response (AID 2010); format: functional, cell-based;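 further: cells exposed to compound for about 90 hours before reading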

**Q.** Which AC50 [1] does the source give for `CC(=O)Nc1ccc(S(=O)(=O)Nc2ccc(S(=O)(=O)Nc3nc(C)cc(C)n3)cc2)cc1` here?
**A.** Its AC50 is 19.7 µM (active).

**Q.** For `O=C(N/N=C/c1cccs1)c1[nH]nc2c1CCCC2`, which EC50 [2] is on record?
**A.** Its EC50 is 8.52 µM (active).

**Q.** What about the EC50 [3] of the same compound?
**A.** Its EC50 is 8.62 µM (inconclusive).

**Q.** And the EC50 [4]?
**A.** Its EC50 is 9.49 µM (active).

**Q.** And the AC50 (HEK293)?
**A.** Its AC50 is 2.39 µM (active).

**Q.** For `Cc1ccc(/N=C/N(C)/C=N/c2ccc(C)cc2C)c(C)c1` [AMITRAZ], which AC50 [5] is on record?
**A.** Its AC50 is 50.1 µM (inconclusive).

**Q.** With `Clc1cccc(Cl)c1Cn1cnc(NCc2ccco2)c2ncnc1-2` as the compound, how does the IC50 [6] read?
**A.** The IC50 was 4.06 µM (active).

**Q.** And the IC50 [7]?
**A.** The IC50 was 9.54 µM (active).

**Q.** Which results are given for `CC1OC(O[C@@H]2C=C3CC[C@@H]4[C@H](CC[C@]5(C)[C@@H](c6ccc(=O)oc6)CC[C@]45O)[C@@]3(C)CC2)C(O)C(OC2OC(CO)C(O)C(O)C2O)C1O` (some centres not stated)?
**A.** GI50 (P388): 45.3 µM (inactive); GI50 (SN12K1): 0.025 µM (active); GI50 (P388/ADR): 51.3 µM (inactive)

**Q.** Which IC50 (Prothrombin) does the source give for `CCCC/N=c1\scc(-c2ccc3c(c2)NC(=O)CO3)n1N=C1CCCC1` here?
**A.** Its IC50 is 27.7 µM (active).

**Q.** What about the IC50 [8] of the same compound?
**A.** The IC50 was > 100 µM (inactive).

**Q.** And the IC50 [9]?
**A.** Its IC50 is 26.6 µM (active).

**Q.** Which IC50 [10] does the source give for `S=C1NC2(CCCC2)Nc2ccccc21` here?
**A.** Its IC50 is 53.6 µM (inactive).

**Q.** Which results are given for `O=C(COc1cccc(Cl)c1)N/N=C\c1cc2ccccc2nc1Cl`?
**A.** EC50 [11]: > 99 µM (inactive); EC50 [12]: > 99 µM (inactive)

**Q.** With `CN(Cc1ccccc1)C(=O)c1ccc(NC(=O)Cc2ccc(NC(=O)C3CCN(C(=O)C4CCCC4)CC3)cc2)cc1` as the compound, how does the IC50 [13] read?
**A.** The IC50 was 20.7 µM (inactive).

**Q.** Which EC50 [14] does the source give for `CCN1CCN(CCNC(=O)c2ccc(/C=C3\Sc4ccccc4N(Cc4ccccc4F)C3=O)cc2)CC1` here?
**A.** The EC50 was 2.03 µM (active).

**Q.** What about the IC50 (Vero) of the same compound?
**A.** Its IC50 is 22.8 µM (active).

**Q.** What about the EC50 (Melanocortin receptor 4) of the same compound?
**A.** Its EC50 is > 89.2 µM (inactive).

**Q.** What about the EC50 [15] of the same compound?
**A.** The EC50 was > 60 µM (not active).
